From PubChem BioAssay (NCI)
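Following 48 hours of exposure in 96-well plates, responses at five concentrations were used to interpolate endpoints linearly. GI50 is the concentration that inhibits growth by half. TGI marks complete inhibition of growth.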

Columns and labels:
Test in all cases: NCI tumour cell line growth inhibition, 48 h
786-0 renal = system: 786-0 renal
A498 renal = system: A498 renal
A549 NSCLC = system: A549 NSCLC
ACHN renal = system: ACHN renal
BT-549 breast = system: BT-549 breast
COLO 205 colon = system: COLO 205 colon
DU-145 prostate = system: DU-145 prostate
HCC-2998 colon = system: HCC-2998 colon
HCT-116 colon = system: HCT-116 colon
HCT-15 colon = system: HCT-15 colon
HL-60(TB) leukemia = system: HL-60(TB) leukemia
HOP-62 NSCLC = system: HOP-62 NSCLC
HOP-92 NSCLC = system: HOP-92 NSCLC
HS 578T breast = system: HS 578T breast
HT29 colon = system: HT29 colon
IGROV1 ovarian = system: IGROV1 ovarian
K-562 leukemia = system: K-562 leukemia
LOX IMVI melanoma = system: LOX IMVI melanoma
M14 melanoma = system: M14 melanoma
MALME-3M melanoma = system: MALME-3M melanoma
MCF7 breast = system: MCF7 breast
MDA-MB-231 breast = system: MDA-MB-231 breast
MDA-MB-435 = system: MDA-MB-435
NCI-H226 lung = system: NCI-H226 lung
NCI-H23 lung = system: NCI-H23 lung
NCI-H460 lung = system: NCI-H460 lung
NCI/ADR-RES ovarian = system: NCI/ADR-RES ovarian
OVCAR-3 ovarian = system: OVCAR-3 ovarian
OVCAR-4 ovarian = system: OVCAR-4 ovarian
OVCAR-5 ovarian = system: OVCAR-5 ovarian
OVCAR-8 ovarian = system: OVCAR-8 ovarian
PC-3 prostate = system: PC-3 prostate
RPMI-8226 leukemia = system: RPMI-8226 leukemia
RXF 393 renal = system: RXF 393 renal
SF-268 CNS = system: SF-268 CNS
SF-539 CNS = system: SF-539 CNS
SK-MEL-2 melanoma = system: SK-MEL-2 melanoma
SK-MEL-28 melanoma = system: SK-MEL-28 melanoma
SK-MEL-5 melanoma = system: SK-MEL-5 melanoma
SK-OV-3 ovarian = system: SK-OV-3 ovarian
SN12C renal = system: SN12C renal
SNB-19 CNS = system: SNB-19 CNS
SNB-75 CNS = system: SNB-75 CNS
SW-620 colon = system: SW-620 colon
T-47D breast = system: T-47D breast
TK-10 renal = system: TK-10 renal
U251 CNS = system: U251 CNS
UACC-257 melanoma = system: UACC-257 melanoma
UACC-62 melanoma = system: UACC-62 melanoma
UO-31 renal = system: UO-31 renal
CAKI-1 renal = system: CAKI-1 renal
CCRF-CEM leukemia = system: CCRF-CEM leukemia
EKVX NSCLC = system: EKVX NSCLC
KM12 colon = system: KM12 colon
MOLT-4 leukemia = system: MOLT-4 leukemia
NCI-H522 lung = system: NCI-H522 lung
SF-295 CNS = system: SF-295 CNS
SR leukemia = system: SR leukemia

`CC(SC(=S)N1CCCCC1)C(=O)Nc1nnc(-c2ccc(Cl)cc2)o1` (centres undefined) gave a TGI (786-0 renal) of 47500 nM, a TGI (A498 renal) of 88600 nM and a TGI (A549 NSCLC) greater than 100000 nM. The TGI (ACHN renal) was greater than 100000 nM, the TGI (BT-549 breast) was greater than 100000 nM and the TGI (COLO 205 colon) was greater than 100000 nM. It also gave a TGI (DU-145 prostate) greater than 100000 nM, a TGI (HCC-2998 colon) greater than 100000 nM and a TGI (HCT-116 colon) of 40300 nM. For the same molecule, the TGI (HCT-15 colon) was greater than 100000 nM, the TGI (HL-60(TB) leukemia) was 23100 nM and the TGI (HOP-62 NSCLC) was greater than 100000 nM. The TGI (HOP-92 NSCLC) was greater than 100000 nM, the TGI (HS 578T breast) was greater than 100000 nM and the TGI (HT29 colon) was 54600 nM. It also gave a TGI (IGROV1 ovarian) greater than 100000 nM, a TGI (K-562 leukemia) greater than 100000 nM and a TGI (LOX IMVI melanoma) greater than 100000 nM. For the same molecule, the TGI (M14 melanoma) was 53700 nM, the TGI (MALME-3M melanoma) was 72600 nM and the TGI (MCF7 breast) was 76100 nM. For the same molecule, the TGI (MDA-MB-231 breast) was greater than 100000 nM, the TGI (MDA-MB-435) was greater than 100000 nM and the TGI (NCI-H226 lung) was greater than 100000 nM. It also gave a TGI (NCI-H23 lung) greater than 100000 nM, a TGI (NCI-H460 lung) greater than 100000 nM and a TGI (NCI/ADR-RES ovarian) greater than 100000 nM. For the same molecule, the TGI (OVCAR-3 ovarian) was 64200 nM, the TGI (OVCAR-4 ovarian) was greater than 100000 nM and the TGI (OVCAR-5 ovarian) was greater than 100000 nM. For the same molecule, the TGI (OVCAR-8 ovarian) was greater than 100000 nM, the TGI (PC-3 prostate) was 82900 nM and the TGI (RPMI-8226 leukemia) was 51500 nM. For the same molecule, the TGI (RXF 393 renal) was greater than 100000 nM, the TGI (SF-268 CNS) was 81100 nM and the TGI (SF-539 CNS) was greater than 100000 nM. For the same molecule, the TGI (SK-MEL-2 melanoma) was 77100 nM, the TGI (SK-MEL-28 melanoma) was greater than 100000 nM and the TGI (SK-MEL-5 melanoma) was greater than 100000 nM. For the same molecule, the TGI (SK-OV-3 ovarian) was greater than 100000 nM, the TGI (SN12C renal) was 51600 nM and the TGI (SNB-19 CNS) was greater than 100000 nM. It also gave a TGI (SNB-75 CNS) greater than 100000 nM, a TGI (SW-620 colon) greater than 100000 nM and a TGI (T-47D breast) greater than 100000 nM. For the same molecule, the TGI (TK-10 renal) was greater than 100000 nM, the TGI (U251 CNS) was greater than 100000 nM and the TGI (UACC-257 melanoma) was greater than 100000 nM. For the same molecule, the TGI (UACC-62 melanoma) was 75100 nM and the TGI (UO-31 renal) was 54000 nM.
Work on `CS(=O)(=O)N1CCN(Cc2cc3nc(-c4cccc5[nH]ncc45)nc(N4CCOCC4)c3s2)CC1` (tested in a mixture with another compound) yielded a GI50 (786-0 renal) of 37 nM, a TGI (786-0 renal) of 148 nM and a GI50 (A498 renal) of 136 nM. It also gave a TGI (A498 renal) of 774 nM, a GI50 (A549 NSCLC) of 21.3 nM and a TGI (A549 NSCLC) of 48.7 nM. For the same molecule, the GI50 (ACHN renal) was 63.8 nM, the GI50 (BT-549 breast) was 31.6 nM and the TGI (BT-549 breast) was 102 nM. The GI50 (CAKI-1 renal) was 76.9 nM, the TGI (CAKI-1 renal) was 462 nM and the GI50 (CCRF-CEM leukemia) was 272 nM. The GI50 (COLO 205 colon) was 182 nM, the TGI (COLO 205 colon) was 649 nM and the GI50 (DU-145 prostate) was 83.7 nM. It also gave a GI50 (EKVX NSCLC) of 87 nM, a GI50 (HCC-2998 colon) of 1310 nM and a TGI (HCC-2998 colon) greater than 100000 nM. For the same molecule, the GI50 (HCT-116 colon) was 149 nM, the GI50 (HCT-15 colon) was 207 nM and the TGI (HCT-15 colon) was greater than 100000 nM. For the same molecule, the GI50 (HL-60(TB) leukemia) was 57.5 nM, the TGI (HL-60(TB) leukemia) was 34000 nM and the GI50 (HOP-62 NSCLC) was 112 nM. It also gave a GI50 (HOP-92 NSCLC) of 114 nM, a TGI (HOP-92 NSCLC) of 829 nM and a GI50 (HS 578T breast) of 49.6 nM. The TGI (HS 578T breast) was 612 nM, the GI50 (HT29 colon) was 74 nM and the GI50 (IGROV1 ovarian) was 32.4 nM. The TGI (IGROV1 ovarian) was 188 nM, the GI50 (K-562 leukemia) was 349 nM and the GI50 (KM12 colon) was 82.6 nM. For the same molecule, the TGI (KM12 colon) was 415 nM, the GI50 (LOX IMVI melanoma) was 169 nM and the GI50 (M14 melanoma) was 277 nM. The GI50 (MALME-3M melanoma) was 139 nM, the TGI (MALME-3M melanoma) was 1990 nM and the GI50 (MCF7 breast) was 50.9 nM. For the same molecule, the GI50 (MDA-MB-231 breast) was 1490 nM, the TGI (MDA-MB-231 breast) was greater than 100000 nM and the GI50 (MDA-MB-435) was 42.5 nM. It also gave a TGI (MDA-MB-435) of 211 nM, a GI50 (MOLT-4 leukemia) of 60.8 nM and a GI50 (NCI-H226 lung) of 374 nM. The GI50 (NCI-H23 lung) was 260 nM, the GI50 (NCI-H460 lung) was 79.6 nM and the GI50 (NCI-H522 lung) was 375 nM. The TGI (NCI-H522 lung) was 13000 nM, the GI50 (NCI/ADR-RES ovarian) was 284 nM and the GI50 (OVCAR-3 ovarian) was 61.5 nM. It also gave a TGI (OVCAR-3 ovarian) of 586 nM, a GI50 (OVCAR-4 ovarian) of 514 nM and a GI50 (OVCAR-5 ovarian) of 134 nM. It also gave a GI50 (OVCAR-8 ovarian) of 154 nM, a GI50 (PC-3 prostate) of 82.3 nM and a GI50 (RPMI-8226 leukemia) of 3480 nM. It also gave a TGI (RPMI-8226 leukemia) greater than 100000 nM, a GI50 (RXF 393 renal) of 79.2 nM and a TGI (RXF 393 renal) of 371 nM. The GI50 (SF-268 CNS) was 152 nM, the GI50 (SF-295 CNS) was 62 nM and the TGI (SF-295 CNS) was 468 nM. It also gave a GI50 (SF-539 CNS) of 31.9 nM, a TGI (SF-539 CNS) of 108 nM and a GI50 (SK-MEL-2 melanoma) of 753 nM. The TGI (SK-MEL-2 melanoma) was 6670 nM, the GI50 (SK-MEL-28 melanoma) was 210 nM and the GI50 (SK-MEL-5 melanoma) was 201 nM. It also gave a TGI (SK-MEL-5 melanoma) of 638 nM, a GI50 (SK-OV-3 ovarian) of 55.9 nM and a TGI (SK-OV-3 ovarian) of 328 nM. The GI50 (SN12C renal) was 89.8 nM, the GI50 (SNB-19 CNS) was 328 nM and the GI50 (SNB-75 CNS) was 21 nM. It also gave a TGI (SNB-75 CNS) of 164 nM, a GI50 (SR leukemia) of 194 nM and a GI50 (SW-620 colon) of 824 nM. It also gave a TGI (SW-620 colon) greater than 100000 nM, a GI50 (T-47D breast) of 20.7 nM and a TGI (T-47D breast) of 105 nM. The GI50 (TK-10 renal) was 129 nM, the GI50 (U251 CNS) was 213 nM and the GI50 (UACC-257 melanoma) was 60.8 nM. It also gave a TGI (UACC-257 melanoma) of 420 nM, a GI50 (UACC-62 melanoma) of 105 nM and a TGI (UACC-62 melanoma) of 706 nM. The GI50 (UO-31 renal) was 49.3 nM and the TGI (UO-31 renal) was 292 nM.
